Experimental data reported in patent US10849904B2, “Methods for treatment of retinal disease by photoreceptor gene expression modulation” (University of Washington, priority 2015, dated 2020).

Key:
[1] = system: rhodopsin promoter; experiment: Dual luciferase rhodopsin promoter reporter assay in HEK293T cells; type: cell-based; conditions: 10 μM, 2 days
From the text: Nr2e3, Crx, and Nrl are known to activate rod gene expression by forming a complex at the promoters of rod genes. To test whether PR1 might interfere with this complex, a luciferase reporter assay was used. For this assay, the rhodopsin promoter driving firefly luciferase was co-transfected with Nrl, Nr2e3, or Crx or all of these transcription factors together into HEK293T cells. A large synergy in the activation of the rhodopsin reporter was found with the combination of these three transcription factors (FIG. 6G).
HEK293T cells were transfected with 1 μg of the luciferase reporter BR-225Luc, 1 ng of the control pRL-CMV (Promega) and 100 ng of hNRL-pCMVSport6 (Open Biosystems), hCRX-pCMVSport6 (Open Biosystems), or hNR2E3-pcDNA3.1/HisC in 24 well plates using Lipofectamine 3000 reagent (Thermo Fisher Scientific). Transfection reagents were removed the following day and replaced with media containing DMSO or 10 μM PR1 for 2 days. Cells were lysed and firefly and renilla luciferase activity was measured with the Dual-Luciferase Reporter Assay System (Promega) using a 1420 Multilabel Victor3V plate reader.

[2] = system: S opsin+ photoreceptors; experiment: Injection of timed-pregnant dams at E14 and E17, S opsin+ photoreceptors in P0 pups; type: in vivo, mouse; conditions: dams injected 100 μl of 50 mM at E14 and E17, pups analysed at P0, vs controls
Procedure: Nr2e3 is expressed in developing rods prior to birth, and so to test whether PR1 could affect prenatal rod development, wild type timed-pregnant dams were injected with 100 μl of 50 mM PR1 at E14 and E17, during peak S cone photoreceptor genesis and the onset of Nr2e3 expression (FIG. 7F). The pups were sacrificed at P0 and their retinas collected for staining and for quantifying S opsin+ photoreceptors. […] To determine if PR1 affected rhodopsin expression in developing rods in vivo, pups were injected with 20 μl of 50 mM PR1 or an equal volume of DMSO at P2 or P3 (FIG. 7I). The pups were sacrificed the following day and analyzed rhodopsin expression by qPCR.
Retinal explants or eyecups were fixed in 4% PFA in 1×PBS for 20 minutes at room temperature and then cryoprotected in 30% sucrose in 1×PBS overnight at 4° C. Samples were embedded in OCT (Sakura Finetek), frozen on dry ice, and then sectioned at 14-16 μm on a cryostat (Leica). Slides were blocked with a solution containing 10% Normal Horse Serum (Vector Labs) and 0.5% Triton X-100 (Sigma-Aldrich) in 1×PBS for 1 hour at room temperature and then stained overnight at 4° C. with primary antibodies diluted in blocking solution. […]

[3] = system: retinas from Rho^P23H mice at P12; experiment: P12 Rho^P23H retinal explants, rod degeneration (ONL nuclei, Gnb1); type: cell-based, mouse; conditions: 1 μM, vs DMSO
From the text: The effect of PR1 on Rho expression in adult rods might have potential as a way to slow the degeneration of these cells in dominant forms of retinitis pigmentosa, like Rho^P23H. In this disease, the affected individuals express a mutant form of rhodopsin that is likely inappropriately processed and ultimately leads to the death of the rods. […] The majority of rod cell death in the Rho^P23H transgenic line occurs between P14 and P21. Therefore, explants of retinas from Rho^P23H mice at P12 were made and treated the explants with 1 μM PR1 or DMSO (FIG. 9H). After 6 days in vitro, the retinas were processed for histology. The number of nuclei were counted in the ONL of each retina in the central region 100 μm from the optic nerve head. […] Gnb1 expression was also monitored as another measure of rod photoreceptor preservation because this is not directly affected by PR1 and thus serves as a surrogate for rod number. […]
RNA was isolated using TRIzol (Invitrogen) and cDNA was synthesized using the iScript cDNA synthesis kit (Bio-Rad) following an intervening DNase treatment with RQ1 RNase-free DNase (Promega). SSO Fast (Bio-Rad) was used for quantitative real-time PCR. For analysis, values were normalized to Gapdh and ΔΔCt between DMSO and compound-treated samples was expressed as percent of DMSO treated controls (100*2^ΔΔCt). […]

Compound: Cc1cc(C)cc(NC(=O)CCc2nc3sc4c(c3c(=O)[nH]2)CCCC4)c1 [PR1, N-(3,5-dimethylphenyl)-3-(4-oxo-5,6,7,8-tetrahydro-3H-[1]benzothiolo[2,3-d]pyrimidin-2-yl)propanamide]
- activation of the rhodopsin promoter reporter ([1]; HEK293T transfected with Crx and Nrl): large reduction
- activation of the rhodopsin promoter reporter ([1]; HEK293T transfected with Nr2e3, Crx and Nrl): large reduction
- number of S opsin-positive cells in pups [2]: increase in the number of S opsin-positive cells
- number of rod photoreceptors (nuclei) in the ONL, 100 μm from the optic nerve head ([3]; 6 days in vitro): nearly twice
- Gnb1 expression (surrogate for rod number) [3]: significantly more Gnb1 expression
